Measured values as given in the supplement of paper PMC10307832.

What was measured:
Experiment in all cases: relative viability (nuclei count vs DMSO), 5 days (fraction); higher = more cells survive
Alisertib + Bortezomib = compound: COc1cc(Nc2ncc3c(n2)-c2ccc(Cl)cc2C(c2c(F)cccc2OC)=NC3)ccc1C(=O)O [Alisertib] + CC(C)C[C@H](NC(=O)[C@H](Cc1ccccc1)NC(=O)c1cnccn1)B(O)O [Bortezomib] (partner 0.002 µM)
Method in brief: (§1)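 Lung cancer cell lines were seeded in 1536-well plates and dosed by pin tool the next day, with either a single drug or a fixed anchor-drug dose combined with five library-drug doses (not always all listed) spaced in √10 steps. Five days later, one step fixed the cells and stained their nuclei (final 0.05% Triton X-100, 1% formaldehyde, 1 ug/ml Hoechst), and nuclei were counted on 4× images. Relative viability is the nuclei count in treated wells divided by the count in vehicle wells, and each value is the median of duplicate plates.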

Alisertib + Palbociclib = compound: COc1cc(Nc2ncc3c(n2)-c2ccc(Cl)cc2C(c2c(F)cccc2OC)=NC3)ccc1C(=O)O [Alisertib] + CC(=O)c1c(C)c2cnc(Nc3ccc(N4CCNCC4)cn3)nc2n(C2CCCC2)c1=O [Palbociclib] (partner 0.5 µM)
Method in brief: as §1

Alisertib + Foretinib = compound: COc1cc(Nc2ncc3c(n2)-c2ccc(Cl)cc2C(c2c(F)cccc2OC)=NC3)ccc1C(=O)O [Alisertib] + COc1cc2c(Oc3ccc(NC(=O)C4(C(=O)Nc5ccc(F)cc5)CC4)cc3F)ccnc2cc1OCCCN1CCOCC1 [Foretinib] (partner 0.25 µM)
Method in brief: as §1

Alisertib + Pictilisib = compound: COc1cc(Nc2ncc3c(n2)-c2ccc(Cl)cc2C(c2c(F)cccc2OC)=NC3)ccc1C(=O)O [Alisertib] + CS(=O)(=O)N1CCN(Cc2cc3nc(-c4cccc5[nH]ncc45)nc(N4CCOCC4)c3s2)CC1 [Pictilisib] (partner 1 µM)
Method in brief: as §1

Row | Cell Line | relative viability (Alisertib + Bortezomib; first compound 0.005 µM) | relative viability (Alisertib + Bortezomib; first compound 0.01581 µM) | relative viability (Alisertib + Bortezomib; first compound 0.05 µM) | relative viability (Alisertib + Bortezomib; first compound 0.1581 µM) | relative viability (Alisertib + Bortezomib; first compound 0.5 µM) | relative viability (Alisertib + Palbociclib; first compound 0.005 µM) | relative viability (Alisertib + Palbociclib; first compound 0.01581 µM) | relative viability (Alisertib + Palbociclib; first compound 0.05 µM) | relative viability (Alisertib + Palbociclib; first compound 0.1581 µM) | relative viability (Alisertib + Palbociclib; first compound 0.5 µM) | relative viability (Alisertib + Foretinib; first compound 0.005 µM) | relative viability (Alisertib + Foretinib; first compound 0.01581 µM) | relative viability (Alisertib + Foretinib; first compound 0.05 µM) | relative viability (Alisertib + Foretinib; first compound 0.1581 µM) | relative viability (Alisertib + Foretinib; first compound 0.5 µM) | relative viability (Alisertib + Pictilisib; first compound 0.005 µM) | relative viability (Alisertib + Pictilisib; first compound 0.01581 µM) | relative viability (Alisertib + Pictilisib; first compound 0.05 µM) | relative viability (Alisertib + Pictilisib; first compound 0.1581 µM) | relative viability (Alisertib + Pictilisib; first compound 0.5 µM)
1 | 201T | 1.05 | 1.07 | 1.08 | 1.07 | 0.694 | 0.351 | 0.33 | 0.327 | 0.28 | 0.24 | 1.14 | 0.997 | 1.02 | 0.453 | 0.271 | 0.623 | 0.676 | 0.671 | 0.326 | 0.327
2 | A-427 | 0.89 | 0.818 | 0.751 | 0.149 | 0.15 | 0.493 | 0.444 | 0.255 | 0.276 | 0.24 | 0.877 | 0.777 | 0.197 | 0.182 | 0.178 | 0.615 | 0.451 | 0.234 | 0.147 | 0.172
3 | ABC-1 | 0.279 | 0.269 | 0.315 | 0.278 | 0.278 | 0.697 | 0.661 | 0.67 | 0.371 | 0.316 | 1.08 | 1.06 | 0.58 | 0.344 | 0.22 | 0.674 | 0.606 | 0.578 | 0.277 | 0.232
4 | BEN | 0.691 | 0.867 | 0.398 | 0.229 | 0.2 | 0.45 | 0.444 | 0.348 | 0.327 | 0.384 | 0.486 | 0.57 | 0.277 | 0.213 | 0.21 | 0.554 | 0.508 | 0.276 | 0.24 | 0.224
5 | CAL-12T | 0.768 | 0.489 | 0.296 | 0.221 | 0.201 | 0.327 | 0.259 | 0.188 | 0.138 | 0.172 | 0.995 | 0.821 | 0.231 | 0.231 | 0.212 | 0.322 | 0.294 | 0.134 | 0.246 | 0.218
6 | COR-L23 | 0.895 | 0.789 | 0.647 | 0.137 | 0.131 | 0.253 | 0.234 | 0.142 | 0.112 | 0.0947 | 0.848 | 0.823 | 0.606 | 0.243 | 0.128 | 0.662 | 0.632 | 0.248 | 0.137 | 0.0917
7 | COR-L 105 | 0.757 | 0.875 | 0.447 | 0.27 | 0.218 | 0.368 | 0.417 | 0.356 | 0.33 | 0.37 | 0.937 | 1.11 | 0.919 | 0.662 | 0.271 | 0.44 | 0.34 | 0.336 | 0.264 | 0.281
8 | Calu-6 | 0.89 | 0.57 | 0.316 | 0.189 | 0.195 |  |  |  |  |  | 0.855 | 0.599 | 0.228 | 0.155 | 0.137 | 0.726 | 0.379 | 0.164 | 0.171 | 0.153
9 | ChaGo-K-1 | 0.88 | 0.696 | 0.322 | 0.276 | 0.232 | 0.817 | 0.686 | 0.219 | 0.203 | 0.166 | 0.922 | 0.845 | 0.237 | 0.21 | 0.192 | 0.632 | 0.457 | 0.267 | 0.283 | 0.184
10 | EKVX | 0.967 | 0.8 | 0.391 | 0.185 | 0.169 | 0.386 | 0.431 | 0.27 | 0.183 | 0.176 | 0.954 | 0.812 | 0.194 | 0.195 | 0.202 | 0.405 | 0.418 | 0.266 | 0.157 | 0.15
11 | EMC-BAC-2 | 0.91 | 0.947 | 0.579 | 0.229 | 0.243 | 0.51 | 0.416 | 0.4 | 0.382 | 0.268 | 0.922 | 0.838 | 0.318 | 0.252 | 0.203 | 0.516 | 0.414 | 0.291 | 0.271 | 0.233
12 | EPLC-272H | 0.794 | 0.856 | 0.79 | 0.135 | 0.13 | 0.32 | 0.318 | 0.303 | 0.236 | 0.238 | 0.733 | 0.554 | 0.152 | 0.0794 | 0.133 | 0.281 | 0.244 | 0.227 | 0.14 | 0.124
13 | H3255 | 0.664 | 0.733 | 0.46 | 0.216 | 0.195 | 0.313 | 0.314 | 0.312 | 0.278 | 0.249 | 0.823 | 0.821 | 0.573 | 0.219 | 0.177 | 0.472 | 0.447 | 0.286 | 0.165 | 0.152
14 | HARA | 1.06 | 1.11 | 0.651 | 0.191 | 0.108 | 0.288 | 0.242 | 0.243 | 0.161 | 0.147 | 0.864 | 0.663 | 0.316 | 0.148 | 0.101 | 0.283 | 0.426 | 0.511 | 0.112 | 0.0803
15 | HCC-15 | 0.941 | 0.901 | 0.48 | 0.164 | 0.118 | 0.661 | 0.465 | 0.296 | 0.213 | 0.146 | 0.999 | 0.627 | 0.184 | 0.139 | 0.129 | 0.586 | 0.64 | 0.233 | 0.117 | 0.123
16 | HCC-44 | 0.95 | 0.827 | 0.664 | 0.28 | 0.15 | 0.949 | 0.85 | 0.636 | 0.616 | 0.338 |  |  |  |  |  | 0.623 | 0.598 | 0.572 | 0.153 | 0.159
